Literature values, collected in US20090105222A1, “PREVENTION AND TREATMENT OF […] DISORDERS, INCLUDING STRESS-RELATED DISORDERS” (Cypress Bioscience, Inc., priority 2002, published 2009).

Molecular target: NMDA receptor
Details: reported in literature (Shuto et al.); read-out: IC50 value, NMDA receptor antagonistic properties

CCN(CC)C(=O)C1(c2ccccc2)CC1CN (stereo not shown) [milnacipran]
IC50: ~6.3 µM
